Experimental data: ChEMBL document CHEMBL4339242, “Pyranoflavanones and Pyranochalcones from the Fruits of Amomum tsao-ko” (J Nat Prod, 2019)
pIC50: −log10 of the molar value.

What was measured:
[1] = test system: RAW264.7; assay: Inhibition of lipopolysaccharide-induced nitric oxide production in mouse RAW264.7 cells by Griess reagent based assay; format: functional, cell-based
[2] = test system: RAW264.7; assay: Toxicity in lipopolysaccharide-induced mouse RAW264.7 cells by MTT-based colorimetric assay; format: cell-based

Structure (SMILES) | pIC50 [1] | Activity [2]
COc1cc2c(c3c1C(=O)C[C@H](c1ccccc1)O3)C=CC(C)(CCC=C(C)C)O2 (stereo partly specified) | 4.97 | Non-Toxic
COc1cc2c(c3c1C(=O)C[C@H](c1ccc(O)cc1)O3)C=CC(C)(CCC=C(C)C)O2 (stereo partly specified) | 4.79 | Non-Toxic
COc1cc2c(c3c1C(=O)C[C@H](c1ccc(O)cc1)O3)C=CC(C)(CC/C=C(\C)CCC=C(C)C)O2 (stereo partly specified) | 4.38 | Non-Toxic
COc1cc2c(c3c1C(=O)C[C@H](c1ccccc1)O3)C=CC(C)(CC/C=C(\C)CCC=C(C)C)O2 (stereo partly specified) | 4.58 | Non-Toxic
COc1cc2c(c3c1C(=O)C[C@@H](c1ccc(O)cc1)O3)C=CC(C)(CC/C=C(\C)CCC=C(C)C)O2 (stereo partly specified) | 4.41 | Non-Toxic
COc1cc2c(c(O)c1C(=O)/C=C/c1ccc(O)cc1)C=CC(C)(CC/C=C(\C)CCC=C(C)C)O2 (stereo unspecified) | 4.51 | Non-Toxic
COc1cc2c(c3c1C(=O)C[C@@H](c1ccc(O)cc1)O3)C=CC(C)(CCC=C(C)C)O2 (stereo partly specified) | 4.85 | Non-Toxic
COc1cc2c(c3c1C(=O)C[C@@H](c1ccccc1)O3)C=CC(C)(CCC=C(C)C)O2 (stereo partly specified) | 4.87 | Non-Toxic
COc1cc2c(c(O)c1C(=O)/C=C/c1ccccc1)C=CC(C)(CC/C=C(\C)CCC=C(C)C)O2 (stereo unspecified) | 4.87 | Non-Toxic
COc1cc2c(c3c1C(=O)C[C@@H](c1ccccc1)O3)C=CC(C)(CC/C=C(\C)CCC=C(C)C)O2 (stereo partly specified) | 4.54 | Non-Toxic
N=C(N)NN [PIMAGEDINE] | 4.66 | 
